# Legend:
# clinical = experiment: clinical
# Method: PK samples were taken in Module 1A, Module 1 B-1 and Module 2A (see schedule of assessments in Supplementary Information for timing of PK samples). PK parameters were derived using standard non-compartmental methods.
# Samuraciclib pharmacokinetic (PK) analyses were performed using the PK Population (defined as all patients who received at least 1 dose of samuraciclib and who had at least 1 samuraciclib plasma concentration above the lower limit of quantification and no important AEs or protocol deviations or other event that could have impacted the PK analysis). PK parameters were derived using standard non-compartmental methods, with graphical presentations of PK data as appropriate. Samuraciclib plasma concentrations and derived PK parameters were summarized by dose level. Parameters following single and multiple dosing were summarized separately. Appropriate statistics were used to summarize plasma concentrations and PK parameters. […]
# dog = system: dog; set-up: method as in ref IB; settings: oral 5, 15, and 20 mg/kg, ref IB; cited from earlier work
# advanced TNBC = experiment: Module 1B-1 anti-tumor activity (RECIST V1.1); format: in vivo, human
# Method: A single arm expansion was conducted to refine the safety, tolerability, PK, and pharmacodynamic profiles of samuraciclib monotherapy (360 mg OD) in male or female patients with advanced TNBC. Patients with histological, radiological or cytological confirmation of metastasis or locally advanced TNBC not considered to be appropriate for further standard treatment, who had received at least 1 line of systemic anti-cancer therapy, and measurable disease according to the RECIST V1.1, were eligible.
# Patients underwent regular safety monitoring and 8-week scans reported using RECIST V1.1. […]
# treatment RECIST assessment. […]
# number of patients in the particular analysis population. Duration of response (DoR) was defined as the time from documentation of tumor response to disease progression. Progression-free survival (PFS) was […]
# cause, whichever occurred first. Efficacy results were summarized descriptively and Kaplan -Meier plots provided where appropriate. […]
# [1] = system: Han Wistar (Crl:WI [Han]) rats; settings: cited from earlier work
# reticulocyte counts = experiment: Reticulocyte counts in Module 1A patients; format: in vivo, human
# Description: Enumeration of reticulocyte counts was used as a biomechanical PDc marker, based on the mechanistic r ationale and non-clinical d ata d escrib ed in Section V1.1.4. A cr oss all dose l evels […]
# 2). Subjects who cam e o ff treatment fo r unrelated reasons have shown a s ubsequent increase […]
# induced and reversible.Of note, across dose levels and cycl es anaemia has been uncommon to date (see IB). However, it is to be recognized that onl y few Module 1A patients have stayed on CT7001 for four months or longer.
# Fi g u re 2: Average reticulocyte counts across first three dosing cohorts (120, 240 & 480 […]
# Reticulocyte co unts for subj ects across the three cohorts were monitored over time. Values on treatment were nor malized to the avera ge value observed for each patient fro m scree ni ng a nd p re-treatment c ycle 0 sa mp les. Data are mean ± standard error of the mean for between n=35 and n=1 samples (denoted by symbol color). Linear […]
# V1.1.5.4 Minimum Biologically Active Dos e (MBA D)
# The study’s SRC originally d eclar ed 240 mg OD as MBAD based on observed target toxicit y (diarrhoea), target-medi ated PDc ef fect on reticul ocyt e counts and preliminar y si gnals of anti-tumour activity. This prompted the opening of a cohort with paired breast cancer biopsies at […]
# similar biological activity as observed for 240 m g OD, including PDc and anti-tumour ef fects. […]
# CYP2C9 = system: CYP2C9; set-up: method as in ref IB; settings: human microsomes; ref IB; cited from earlier work
# hERG channel = system: hERG channel; set-up: method as in ref IB; settings: whole-cell patch-clamp, HEK cells, ref IB, cited from earlier work
# CYP2C8 = system: CYP2C8; set-up: method as in ref IB; settings: human microsomes; ref IB; cited from earlier work
smiles,measurement,setting,value
"CC(C)c1cnn2c(NCc3ccccc3)cc(NC[C@H]3CCNC[C@@H]3O)nc12 [samuraciclib, Samuraciclib]",Apparent clearance,clinical; Module 1A,moderate to high
same,Time to steady state,"clinical; both, human, in vivo",8 to 15 days
same,Tmax,"clinical; both, human, in vivo",1.5 to 4 h
same,half-life,"clinical; both, human, in vivo",~75 h
same,half-life,"clinical; both, human, in vivo, 180 mg",54.8 to 82.3 h
same,half-life,"clinical; both, human, in vivo, 480 mg",30 to 38 h
same,Distribution,clinical; in vivo,extensively distributed
same,Time dependence of PK,clinical; in vivo,time independent
same,"Haemodynamic parameters, ECG parameters, body temperature",dog,no effect
same,Clinical benefit rate at 24 weeks,"advanced TNBC; Module 1B-1, 4/20",20.0%
same,Best overall response progressive disease,"advanced TNBC; Module 1B-1, 20 evaluable",40.0%
same,Best overall response stable disease,"advanced TNBC; Module 1B-1, 20 evaluable",55.0%
same,Objective response rate,"advanced TNBC; Module 1B-1, 20 evaluable",5.0%
same,"Progression-free survival, median (95% confidence interval)",advanced TNBC; Module 1B-1 ITT N = 23,"2.4 (1.9, 3.8) months"
same,Best objective response: Complete response,advanced TNBC; Module 1B-1 N = 20,0 n (%)
same,Best objective response: Partial response,advanced TNBC; Module 1B-1 N = 20,1 (5.0) n (%)
same,Best objective response: Progressive disease,advanced TNBC; Module 1B-1 N = 20,8 (40.0) n (%)
same,Best objective response: Stable disease,advanced TNBC; Module 1B-1 N = 20,11 (55.0) n (%)
same,Objective response rate,advanced TNBC; Module 1B-1 N = 20,1 (5.0) n (%)
same,Findings in 4-week oral gavage study,"[1]; 120 mg/kg/day, Han Wistar rats, ref IB",deaths and severe clinical
same,HNSTD (middle dose tested),"[1]; rat, in vivo",60 mg/kg
same,Reticulocyte counts,reticulocyte counts; across all dose levels tested in Module 1A,decline in reticulocyt
same,Increase of reticulocyte counts after coming off treatment,reticulocyte counts; p = 0.08,25%
same,IC50,CYP2C8,> 50 µM

# From publication PMC10366102, “Dose escalation and expansion cohorts in patients with advanced breast cancer in a Phase I study of the CDK7-inhibitor samuraciclib” (Nature Communications, 2023)
